Paper PMC6235670, “An mTOR Signaling Modulator Suppressed Heterotopic Ossification of Fibrodysplasia Ossificans Progressiva” (Stem Cell Reports, 2018)

Columns and labels:
BMP signaling (BRE-Luc) = experiment: BRE-Luc reporter assay in FOP-iMSCs; format: cell-based, human; conditions: activin A and compounds for 16 hr
Description: (§1) FOP-iMSCs transiently transfected with BRE-Luc (A) or CAGA-Luc (B) with CMV-Renilla were stimulated with activin A and compounds for 16 hr (A) or 3 hr (B). […] One day after siRNA transfection, chondrogenic induction with activin A was initiated, and after 7 days the cells were harvested. […] FOP-iMSCs cultured with 10% FBS were treated with 100 nM rapamycin (Rapa) or TAK 165 (TAK) for 2 hr, and the cells were harvested. […] 1 μM TAK, 1 μM CP (CP-724714, another selective ERBB2 inhibitor), or 10 nM Rapa were applied in the experiments.

mTOR signaling (p-S6) [1] = experiment: p-S6 western blotting during chondrogenic induction of FOP-iMSCs with activin A; format: cell-based, human; conditions: 1 µM
Description: Western blotting. SDS- PAGE and blotting with whole-cell lysates were performed by standard procedures.
Protein bands were detected with ECL Prime Western Blotting Detection Reagent (GE Healthcare) and visualized using BIO-RAD Molecular Imager® Chemi-DocTM XRS+ with Image LabTM software (Bio-Rad).
All data (relative intensity) were corrected by β-actin.
Antibodies for western blotting and immunostaining.
N ame Company Cat. No Concentration
Human Activin RIA/ALK-2 Antibody R&D Systems) AF637 1:100
Anti-human Vimentin antibody Abcam ab16700 1:40
Collagen I Antibody Novus NB600- 1:100
Anti-rabbit IgG, HRP-linked Antibody Cell Signaling #7074 1:10000 […]
2nd Goat anti-Rabbit IgG (H+L) Secondary Antibody, Invitrogen A-11008 1:100 antibody Alexa Fluor® 488 conjugate
Goat anti-Rabbit IgG (H+L) Secondary Antibody, Invitrogen A-21428 1:500

[2] = test system: BMP-7-induced HO model mice (C57BL/6); experiment: BMP-7-induced HO model mice
From the text: (§2) MTOR s604 […]tt […]at […]
(§3) For X- ray images, mice were anesthetized with isoflurane (5% for induction, 2-3% for maintenance, Abbvie), immobilized and X-rayed using µFX-1000 (Fujifilm) or DX-50 (Faxitron Bioptics). µCT images were scanned using X-ray CT systems (inspeXio SMX-100CT, Shimadzu) and analyzed with TRI/3D-BON software (Ratoc System Engineering) according to the manufacturer's instructions. Four weeks after injection, the injected sites were harvested, fixed with 4% paraformaldehyde for 24 h, embedded in paraffin, and sectioned and stained […]
(§4) BMP-7-induced HO model mice. BMP -7 (2 µ g/mouse) was injected into the right gastrocnemius muscle of C57BL/6NJcl mice (6-8 weeks, male, CLEA Japan), and compounds were administered once a day, five times a week (intraperitoneal administration). Mice were analyzed 2 weeks after injection. […]

ATDC5/FOP-ACVR1 cells = experiment: ALP assay (HTS and dose-response) in ATDC5/FOP-ACVR1; format: cell-based, mouse; conditions: Mus musculus, 72 h, read-out: IC50 (ALP assay)
Description: ATDC5/FOP-ACVR1 cells were plated in 96-well white plates (2,000 cells/well/40 μL, Corning) in DMEM/F-12 supplemented with 5% (v/v) FBS. Two hours after incubation at 37°C under 5% CO2, 10 μL of test compounds (final 1 μM) was added, and the assay plates were incubated at 37°C under 5% CO2. After 3 days of incubation, ALP activity was measured using an Amplite Colorimetric Alkaline Phosphatase Assay Kit (AAT Bioquest) according to the manufacturer's protocol.
Generation of ATDC5 stably expressing ACVR1. WT - or FOP-ACVR1 was inserted into doxycycline (Dox)- […]
(KW111/WT-ACVR1 or KW111/FOP-ACVR1). KW111/WT-ACVR1 or KW111/FOP-ACVR1 and PBaseII […]
FuGeneHD® (Promega) according to the manufacturer’s protocol, and the neomycin- resistant population (500 µg/mL) was selected. […]
HTS campaign and follow-up screens. […] After 3 days incubation, Alkaline Phosphatase activity (ALP) or AlamarBlue activity was measured using Amplite™ Colorimetric Alkaline Phosphatase Assay Kit (AAT Bioquest) or alamarBlue® Cell Viability Reagent (Thermo Fisher Scientific) according to the manufacturer’s protocol, respectively. […]
was measured on POWERSCAN4 (DS Pharma Biomedical) or EnVision® Multilabel Reader (PerkinElmer).
Inhibitory effects of the screened compounds are given as percent inhibition, which was calculated using the following equation: (1-([Abs of compound] - [Abs of Min])/([Abs of Max] - [Abs of Min]))× 100, where [Abs of Max] and [Abs of Min] are the mean Abs of DMSO control and 1 µM DMH-1, respectively. The Z’ factor, which is widely used as a measure of the assay quality of each plate, was calculated using the following equation: Z’ factor = 1 - 3 × ([SD of Max] + [SD of Min])/([Abs of Max] - [Abs of Min]) (SI Appendix, Fig.
The S/B (signal-to-background) ratio was calculated using the following equation: ([Abs of Max]/[Abs of Min]) (SI Appendix, Fig. S3B). […]

[3] = test system: NOD/SCID mice transplanted with FOP-iMSCs
From the text: as §2
as §3, with “instructions.” for “instructions. Four weeks after injection, the injected sites were harvested, fixed with 4% paraformaldehyde for 24 h, embedded in paraffin, and sectioned and stained”
Activin-A-induced HO model transplanted with FOP-iMSCs. FOP- (right leg) and resFOP-iMSCs (left leg) (4 x 10^6 cells, respectively) were transplanted into the gastrocnemius muscle of NOD/ShiJic-scid Jcl (NOD/SCID) mice (8 weeks, male, CLEA Japan) with C3H -DoxOn-hINHBA (5 x 10^5 cells), which can continuously expose Activin-A to the transplanted iMSCs in vivo ( Hino et al., 2015) . In the Dox-induced group, 1 mg/mL Dox (Sigma-Aldrich) was administered via drinking water with 10 mg/mL sucrose (Nacalai Tesque) for two weeks after transplantation. Compounds were intraperitoneally administered once a day, five times a week. Eight weeks after transplantation, the transplanted cells were harvested , fixed with 4% paraformaldehyde for 24 h, embedded in paraffin, and sectioned and stained with HE, von Kossa, Safranin O, human specific anti-Vimentin antibody and Collagen I antibody as previously described (Hino et al., 2015; Umeda et al., 2012; […]

FOP-iMSCs = experiment: 2D chondrogenic induction of FOP-iMSCs with activin A (GAG, Alcian blue); format: cell-based, human; conditions: activin A, 7 days
[4] = test system: TGF-β signaling (CAGA-Luc); experiment: CAGA-Luc reporter assay in FOP-iMSCs; format: cell-based, human; conditions: activin A and compounds for 3 hr
Description: as §1

BMP type I receptors = test system: BMP type I receptors; design: method as in Lewis and Prywes, 2013; conditions: ref Lewis and Prywes, 2013; cited from earlier work
[5] = test system: healthy control iPSC (414C2)-derived iMSCs; experiment: Wound healing assay; conditions: 10 nM rapamycin or 1 µM TAK165, 24 h
C57BL/6 mice = experiment: Growth plate histology and normal bone µCT in compound-administered BMP-7-injected mice; conditions: 5 mg/kg i.p., 2 weeks
Description: as §2
System Engineering) according to the manufacturer's instructions. […]
as §4
Histological analysis of growth plates chondrocytes. Knee joints were obtained from BMP-7-injected and test compounds-administrated C57BL/6NJcl mice after 2 weeks treatment and fixed, paraffin-embedded, and sectioned and stained with Safranin O. The thickness of the proliferative and hypertrophic zones of the growth plate were measured using ImageJ software on images obtained using a Keyence microscope (Keyence A merica). The proliferative zone was defined as the region with flat chondrocytes stacked in longitudinal columns, and the hypertrophic zone as the region where chondrocytes are enlarged in size and form clusters.
Normal bone µCT. The left legs of mice were obtained from BMP -7-injected and test -compounds administrated C57BL/6NJcl mice after 2 weeks treatment. The region of interest (ROI) included the femur- tibia (entire femur in addition to the part of tibia above tibia/fibular junction). […]
Tests of side effects of direct and indirect mTOR inhibitors. Related

mTOR signaling (p-S6) [6] = experiment: p-S6 western blotting in FOP-iMSCs cultured with 10% FBS; format: cell-based, human; conditions: 100 nM, 2 hr
Description: time point t = 24 h from t = 0 h, and relative cell migration was expressed as the ratio of the absolute cell migrations between the experimental and control groups by using CL-Quant software (Nikon Corp.).
Quantitative PCR analysis. Total RNA was purified with RNeasy Kit (Qiagen) and treated with DNase -one Kit (Qiagen) to remove genomic DNA. Total RNA (0.3 µg) was reverse transcribed for single-stranded cDNA using random primers and Superscript III reverse transcriptase (Thermo Fisher Scientific) according to the manufacturer’s instructions. Quantitative PCR was performed with Thunderbird SYBR qPCR Mix (TOYOBO) and analyzed with the StepOne real-time PCR system (Applied Biosystems). […]
Microarray experiments. 2D chondrogenic induction was performed in FOP-iMSCs stimulated with or without 100 ng/mL Activin-A, TAK 165, CP-724714 and Lapatinib. […] Raw CEL files were imported into GeneSpring GX 12.6.1 software (Agilent Technologies), and expression values were calculated with the RMA16 algorithm. […]
Protein bands were detected with ECL Prime Western Blotting Detection Reagent (GE Healthcare) and visualized using BIO-RAD Molecular Imager® Chemi-DocTM XRS+ with Image LabTM software (Bio-Rad). […]
GAG value. The GAG content was quantified in pellets with the Blyscan Glycosaminoglycan Assay Kit (Biocolor). The DNA content was quantified using PicoGreen dsDNA Quantitation Kit (Thermo Fisher […]

Row | Compound | BRE-Luc (BMP-specific luciferase reporter) (BMP signaling (BRE-Luc)) | p-S6 levels from 2 hr after treatment (mTOR signaling (p-S6) [1]) | body weight change compared to vehicle group ([2]; i.p. for 2 weeks, n=5) | BMP-7-induced HO (heterotopic bone volume) ([2]; i.p. once daily 5 times a week for 2 weeks) | # of HO (> 20 mm3): number of mice harboring HO ([2]; i.p. once daily 5 times a week for 2 weeks, N = 5) | IC50 (ATDC5/FOP-ACVR1 cells) [nM] | body weight change compared with vehicle group ([3]; 5 mg/kg i.p.) | hypertrophic chondrocytes and von Kossa- and COL1-positive bone regions ([3]; 5 mg/kg i.p.) | HO derived from FOP-iMSCs (heterotopic bone volume) ([3]; 5 mg/kg i.p. once daily, five times a week, 8 weeks after transplantation) | inhibition of glycosaminoglycan (GAG) production (FOP-iMSCs; 1 μM) | suppression of chondrogenic induction (GAG), dose dependence (FOP-iMSCs) | CAGA-Luc (TGF-β-responsive luciferase reporter) [4] | inhibition of BMP type I receptors (BMP type I receptors) | Relative cell migration (wound healing assay) vs DMSO [5] | Bone Mineral Density (normal bone µCT) vs vehicle (C57BL/6 mice) | Bone volume (normal bone µCT, femur-tibia) vs vehicle (C57BL/6 mice) | Hypertrophic zone thickness of growth plate vs vehicle (C57BL/6 mice) | Proliferative zone thickness of growth plate vs vehicle (C57BL/6 mice) | p-S6 levels (direct mTOR inhibition) (mTOR signaling (p-S6) [6])
1 | CN1CCN(CCOc2cc(OC3CCOCC3)c3c(Nc4c(Cl)ccc5c4OCO5)ncnc3c2)CC1 [AZD0530, saracatinib] | inhibited | significantly inhibited | No significant differences | suppressed | 1/5 | 4 | No significant differences | fewer | significantly suppressed | potent inhibition | dose-dependent | inhibited | inhibited | – | – | – | – | – | –
2 | CO[C@H]1C[C@@H]2CC[C@@H](C)[C@@](O)(O2)C(=O)C(=O)N2CCCC[C@H]2C(=O)O[C@H]([C@H](C)C[C@@H]2CC[C@@H](O)[C@H](OC)C2)CC(=O)[C@H](C)/C=C(\C)[C@@H](O)[C@@H](OC)C(=O)[C@H](C)C[C@H](C)/C=C/C=C/C=C/1C [rapamycin] | – | – | – | – | – | – | – | – | – | – | – | – | – | n.s. | n.s. | n.s. | n.s. | n.s. | decreased
